# Assay results from patent US20260118345A1, “METHOD OF EVALUATING INTERCELLULAR INTERACTIONS IN NEUROINFLAMMATION” (FUJIFILM Corporation, priority 2023, published 2026).
# Legend:
# Assay type in all cases: cell-based, human
# [1] = tested on: NF-κB; assay: NF-κB localization after LPS stimulation, three-cell-type co-culture containing about 0.11% microglia; settings: proportion of microglia about 0.11%
# Description: The amount of cells required for the activated microglia to affect other cells was examined. Two-dimensional three-cell-type co-cultures of astrocytes, neurons, and microglia in which the proportion of the microglia was about 11%, 1.1%, and 0.11% were produced by the same method as in <1> of Test Example 1. In addition, the cells were subjected to LPS stimulation and fixed by the same method as in <1> of Test Example 1. Furthermore, the localization of NF-κB was evaluated by the same method as in <1> of Test Example 1.
# [2] = tested on: two-cell-type co-culture of neurons and astrocytes; assay: Neural activity by calcium imaging (BPM), two-dimensional two-cell-type co-culture of neurons and astrocytes; settings: 24 hours after stimulation (TNF-α 7.5 ng/mL or LPS 100 ng/mL)
# Description: Matrigel basement membrane matrix (Corning, 356234) diluted 120-fold with DMEM/F12 (Life technologies, 11320-033) was added to a 96-well plate at 65 μL/well and allowed to stand at 4° C. After 24 hours, the culture medium was replaced with a progenitor cell culture medium and used. Astrocyte precursor cells (XCell Science, XCS-AP-001-1V) were seeded in a 96-well plate at a density of 6×10^4 cells/well, cultured under the conditions of 37° C. and 5% CO2, after culture medium was replaced with the differentiation induction culture medium, further cultured for 5 days to differentiate into astrocytes. […] After centrifugation, the supernatant was removed, the cells were suspended in 1 mL of the co-culture medium, and the number of cells was counted. […] In addition, at 24 hours after the stimulation with LPS or TNF-α, the neural activity was evaluated by calcium imaging. […] After incubating for 1 hour under conditions of 37° C. and 5% CO2, the solution was replaced with a warmed (37° C.) recording solution, and the fluorescence was measured for 10 minutes with FDSS (registered trademark)/μcell (Hamamatsu Photonics K. K., C13299). The neural activity was evaluated by quantifying the number of peaks of calcium oscillation using Wave Checker Software (Hamamatsu Photonics K. K.).
# [3] = tested on: STAT1; assay: STAT1 localization by immunostaining after LPS stimulation, three-cell-type co-culture of neurons, astrocytes and microglia; settings: LPS 100 ng/mL
# Description: Microglia were specifically stimulated by adding LPS (FUJIFILM Wako Pure Chemical Corporation, 124-05151) at 100 ng/mL to the two-dimensional co-culture that had been cultured for 4 weeks. The cells were fixed by treating, for 30 minutes, with a formaldehyde solution (FUJIFILM Wako Pure Chemical Corporation, 061-00416) diluted 10-fold with PBS(−) (FUJIFILM Wako Pure Chemical Corporation, 166-23555) without treatment, and at 0.5 hours, 1 hour, 3 hours, 6 hours, and 24 hours after the treatment. […]
# The next day, the cells were washed with PBS (−), then as a secondary antibody reaction, treated with Donkey anti-goat Alexa Fluor (registered trademark) 488 (Thermo Fisher Scientific, A11055) diluted 1000-fold, Donkey anti-rabbit Alexa Fluor (registered trademark) 594 (Thermo Fisher Scientific, A32754) diluted 1000-fold, and Hoechst (registered trademark) 33342 (Dojindo, 346-07951) diluted 1000-fold as a secondary antibody reaction, and allowed to stand at room temperature for 60 minutes. After washing with PBS (−), the cells were imaged with a fluorescence microscope (Nikon, ECLIPSE Ti) to acquire an image. […]
substance,measurement,setting,value
lipopolysaccharide [LPS],nuclear translocation of NF-κB,[1]; 1 hour after the LPS treatment,only some cells
same,nuclear translocation of NF-κB,[1]; 3 hours and 6 hours after the LPS treatment,many cells
same,BPM (the number of peaks of calcium oscillation per minute) as compared with the control,[2],no change
same,STAT1 localized in the nucleus,[3]; 1 hour and 3 hours after the LPS stimulation,some cells
same,STAT1 localized in the nucleus,[3]; 6 hours after the stimulation,many cells
